Holding throughout (test): NCI tumour cell line growth inhibition, 48 h
The subject of assay [1] is A498.
Assay [2] has as its system ACHN.
The test system of assay [3] is HCC 2998.
Assay [4] deals with KM12.
Assay [5] concerns MDA-MB-231.
Assay [6] has as its system NCI-H226.
The subject of assay [7] is OVCAR-5.
Assay [8] relates to RPMI-8226.
Assay [9] has as its system RXF 393.
The test system of assay [10] is SF-295.
Assay [11] has as its system SF-539.
Assay [12] deals with SNB-19.
Assay [13] concerns T47D.
In assay [14] the test system is U-251.
In assay [15] the test system is UACC-257.
The test system of assay [16] is HL-60.
Assay [17] has as its system K562.
Assay [18] has as its system MOLT-4.
For assay [19], the system named is DU-145.

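96-well plates; 48 h exposure; 5 concentrations. Endpoints by linear interpolation between flanking doses. Not reached: highest tested concentration assigned. Abbreviation: GI50, concentration required for 50% inhibition of growth.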 Active and inactive are the calls of the source. Cut-off read from the data, not from the text of the source: active = GI50 up to about 1.1 µM and inactive = higher.

Consider `Nc1ccc2ccc(-c3ccc[nH]3)nc2n1`, for which the GI50 in assay [1], in assay [2], in [3], in assay [4], in assay [5] and in assay [6] was > 100 µM (inactive) throughout. Besides, the GI50 in assay [7], in [8], in [9], in assay [10], in assay [11] and in [12] was > 100 µM (inactive) each time. Besides, the GI50 in assay [13], in assay [14] and in [15] was > 100 µM (inactive) in each case.

In the case of `Nn1c(S)nnc1N/N=C1/C(=O)Nc2ccccc21`, the GI50 in [1] was 92.3 µM (inactive); in assay [2], 83.8 µM (inactive); in assay [3], > 100 µM (inactive); in [16] it was 94.4 µM (inactive); in [17], 59 µM (inactive); in [4], 92.3 µM (inactive). The GI50 in assay [18] was 30.7 µM (inactive); in assay [6], 42.1 µM (inactive); in assay [7], > 100 µM (inactive); in assay [8], 63.2 µM (inactive); in assay [9], 27.7 µM (inactive); in assay [10], 82.8 µM (inactive). The GI50 was 94 µM (inactive) in assay [11], 55.2 µM (inactive) in [12], 58.3 µM (inactive) in assay [14] and > 100 µM (inactive) in [15].

Turning to `CC12CCC([C@H](N3CCOCC3)/C1=N\OCCN1CCCC1)C2(C)C` (stereo not given in full), the GI50 in [1], in assay [2], in assay [3], in [16], in assay [17] and in assay [4] was > 100 µM (inactive) throughout. Also, the GI50 in assay [18], in assay [6], in assay [7], in assay [8], in assay [9] and in assay [10] was > 100 µM (inactive) throughout. In addition, the GI50 in assay [11], in assay [12], in assay [14] and in assay [15] was > 100 µM (inactive) each time.

For the compound `CC12CCC(=O)N1c1cccnc1N2` (stereo not given), the GI50 in [1], in assay [2], in [3], in assay [16], in [17] and in [4] was > 100 µM (inactive) each time. Also, the GI50 in assay [18], in [6], in assay [7], in [8], in [9] and in assay [10] was > 100 µM (inactive) throughout. Moreover, the GI50 in [11], in assay [14] and in assay [15] was > 100 µM (inactive) in each case.

With `C[C@]12CC(C#N)C(=O)C(O)=C1CC[C@@H]1C2CC[C@@]2(C)C1CC[C@@H]2O` (stereo not given in full), the GI50 is 3.86 µM (inactive) in [1]; 47.2 µM (inactive) in assay [2]; > 100 µM (inactive) in assay [3]; 13.8 µM (inactive) in assay [16]; 46.9 µM (inactive) in [17]; > 100 µM (inactive) in assay [4]. In addition, the GI50 in assay [18] was 40.7 µM (inactive); in assay [6], 27.6 µM (inactive); in assay [7], 27.3 µM (inactive); in assay [8] it was 7 µM (inactive); in assay [9], 19.1 µM (inactive); in [10], > 100 µM (inactive). The GI50 in assay [11] is 46.1 µM (inactive); in assay [12] it was 83.4 µM (inactive); in assay [14] it was > 100 µM (inactive); in assay [15], 71.1 µM (inactive).

As to `Cc1c(C(=N)N)oc2ccccc12`, the GI50 in assay [1], in assay [2], in assay [3], in assay [16], in assay [17] and in assay [4] was > 100 µM (inactive) each time. The GI50 in assay [18], in [6], in [9], in assay [10], in assay [11] and in assay [12] was > 100 µM (inactive) each time. Also, the GI50 in assay [14] and in [15] was > 100 µM (inactive) throughout.

In the case of `N#CC(c1cc(Cl)ncn1)c1nc2cc(C(F)(F)F)ccc2s1` (stereo not given), the GI50 in assay [1] was 5.85 µM (inactive); in [2] it was 13.6 µM (inactive); in [19], 12.9 µM (inactive); in assay [17], 6.92 µM (inactive); in assay [4], 3.27 µM (inactive); in assay [5], 4.31 µM (inactive). The GI50 in [18] is 4.74 µM (inactive); in assay [6] it was 15.1 µM (inactive); in assay [7], 3.78 µM (inactive); in assay [8] it was 3.78 µM (inactive); in assay [9], 4.33 µM (inactive); in assay [10], 7.33 µM (inactive). Also, the GI50 is 4.63 µM (inactive) in [11]; 3.83 µM (inactive) in assay [12]; 4.29 µM (inactive) in assay [13]; 3.08 µM (inactive) in assay [14]; 4.24 µM (inactive) in assay [15].

Regarding `COc1cc(C(=O)C/C(CCC(=O)Nc2ccc(Cl)cc2Cl)=N/Nc2nnc(C)n2N)ccc1O`, the GI50 in [1] was 92.7 µM (inactive); in [2], > 100 µM (inactive); in [3], > 100 µM (inactive); in assay [16] it was > 100 µM (inactive); in assay [17], > 10 µM (inactive); in [4] it was > 100 µM (inactive). In addition, the GI50 in assay [6], in assay [7], in assay [8], in assay [9], in assay [10] and in assay [11] was > 100 µM (inactive) throughout. Moreover, the GI50 in assay [12], in assay [14] and in assay [15] was > 100 µM (inactive) in each case.

For the compound `COC1C(OC(=O)c2ccc(C)[nH]2)C(O)C(Oc2ccc3c(O)c(NC(=O)c4c[nH]c(C(=O)Nc5c(O)c6ccc(OC7OC(C)(C)C(OC)C(OC(=O)c8ccc(C)[nH]8)C7O)c(C)c6oc5=O)c4C)c(=O)oc3c2C)OC1(C)C` (stereo not given), the GI50 in assay [1] was 1.76 µM (inactive); in assay [2] it was 2.53 µM (inactive); in assay [3], 2.59 µM (inactive); in [16], 1.83 µM (inactive); in assay [17], 2.84 µM (inactive); in assay [4] it was 1.32 µM (inactive). Moreover, the GI50 in [18] is 0.857 µM (active); in assay [6], 1.96 µM (inactive); in assay [7], 2.84 µM (inactive); in [8], 1.53 µM (inactive); in assay [9] it was 0.794 µM (active); in assay [10], 4.01 µM (inactive). Further, the results for the GI50 in [12], in assay [14] and in assay [15] were 0.693 µM (active), 0.597 µM (active) and 3.95 µM (inactive), respectively.

As to `CCOC(=O)C(C(=O)OCC)S(C)(=O)=O`, the GI50 in [1], in assay [2], in assay [3], in assay [16], in assay [17] and in assay [4] was > 100 µM (inactive) in each case. Besides, the GI50 in assay [18], in assay [6], in assay [7], in assay [8], in assay [9] and in assay [10] was > 100 µM (inactive) each time. Further, the GI50 in assay [11], in [12], in assay [14] and in assay [15] was > 100 µM (inactive) each time.

As to `CC1=Nc2ccccc2S(=O)(=O)N1`, the GI50 in assay [1], in [2], in assay [3], in [16], in assay [17] and in [4] was > 100 µM (inactive) throughout. Further, the GI50 in assay [18], in assay [6], in [7], in assay [9], in assay [10] and in assay [11] was > 100 µM (inactive) throughout. Further, the GI50 in [12], in [14] and in [15] was > 100 µM (inactive) throughout.

`CC(=O)O[C@H]1CCC2[C@@H]3CCC4c5nonc5CC[C@]4(C)C3CC[C@@]21C` (stereo not given in full): the GI50 was > 10 µM (inactive) in assay [1]; 88.7 µM (inactive) in assay [2]; > 10 µM (inactive) in [3]; > 10 µM (inactive) in [16]; > 10 µM (inactive) in assay [17]; > 10 µM (inactive) in assay [4]. Also, the GI50 in [18], in [6], in [7], in assay [9], in assay [10] and in assay [11] was > 10 µM (inactive) throughout. Further, the GI50 in assay [12], in assay [14] and in [15] was > 10 µM (inactive) throughout.

These data come from ChEMBL document CHEMBL1201862, “PubChem BioAssay data set” (2004).
